# Measured values: patent publication US12419865B2 (priority 2018, dated 2025)
# pEC50: −log10 of the molar value. Like-named read-outs stand apart in the source and are kept apart here.
# What was measured:
# [1] = test system: LASV-p; experiment: microbe, parasite or virus in culture; assay type: cell-based, Lassa (LASV); settings: Vesicular stomatitis virus, Vero, read-out: LASV-p EC50
# [2] = test system: MACV-p; experiment: organism not typed; assay type: cell-based, Machupo (MACV); settings: Vero, read-out: MACV-p EC50
# [3] = test system: JUNV-p; experiment: organism not typed; assay type: cell-based, Junin (JUNV); settings: Vero, read-out: JUNV-p EC50
# [4] = test system: TCRV-p; experiment: organism not typed; assay type: cell-based; settings: read-out: TCRV-p EC50
# [5] = test system: VSV-p; experiment: microbe, parasite or virus in culture; assay type: cell-based; settings: Vesicular stomatitis virus, Vero, read-out: VSV-p EC50
# [6] = test system: native replicating Tacaribe (TCRV) virus; experiment: microbe, parasite or virus in culture; assay type: cell-based; settings: Mammarenavirus tacaribeense, Vero, 120 h, read-out: TCRV EC50
# [7] = test system: replicative LASV; experiment: microbe, parasite or virus in culture; assay type: cell-based, Lassa Virus; settings: Mammarenavirus lassaense
# [8] = test system: replicative LASV; experiment: microbe, parasite or virus in culture; assay type: cell-based, Lassa Virus; settings: for EC90: Mammarenavirus lassaense
# [9] = 1 h, pH 7.4
# [10] = 1 h, pH 7.4; remark: listed apart in the source
# [11] = 1 h, pH 7.4; remark: listed apart in the source
# [12] = 1 h, pH 7.4; remark: listed apart in the source
# [13] = guinea pig, 1 h, pH 7.4
# [14] = 1 h, pH 7.4; remark: listed apart in the source
# [15] = biological target: hERG channel (Homo sapiens, UniProt Q12809); settings: pH 7.4
# Chain of hERG channel (Q12809 whole entry): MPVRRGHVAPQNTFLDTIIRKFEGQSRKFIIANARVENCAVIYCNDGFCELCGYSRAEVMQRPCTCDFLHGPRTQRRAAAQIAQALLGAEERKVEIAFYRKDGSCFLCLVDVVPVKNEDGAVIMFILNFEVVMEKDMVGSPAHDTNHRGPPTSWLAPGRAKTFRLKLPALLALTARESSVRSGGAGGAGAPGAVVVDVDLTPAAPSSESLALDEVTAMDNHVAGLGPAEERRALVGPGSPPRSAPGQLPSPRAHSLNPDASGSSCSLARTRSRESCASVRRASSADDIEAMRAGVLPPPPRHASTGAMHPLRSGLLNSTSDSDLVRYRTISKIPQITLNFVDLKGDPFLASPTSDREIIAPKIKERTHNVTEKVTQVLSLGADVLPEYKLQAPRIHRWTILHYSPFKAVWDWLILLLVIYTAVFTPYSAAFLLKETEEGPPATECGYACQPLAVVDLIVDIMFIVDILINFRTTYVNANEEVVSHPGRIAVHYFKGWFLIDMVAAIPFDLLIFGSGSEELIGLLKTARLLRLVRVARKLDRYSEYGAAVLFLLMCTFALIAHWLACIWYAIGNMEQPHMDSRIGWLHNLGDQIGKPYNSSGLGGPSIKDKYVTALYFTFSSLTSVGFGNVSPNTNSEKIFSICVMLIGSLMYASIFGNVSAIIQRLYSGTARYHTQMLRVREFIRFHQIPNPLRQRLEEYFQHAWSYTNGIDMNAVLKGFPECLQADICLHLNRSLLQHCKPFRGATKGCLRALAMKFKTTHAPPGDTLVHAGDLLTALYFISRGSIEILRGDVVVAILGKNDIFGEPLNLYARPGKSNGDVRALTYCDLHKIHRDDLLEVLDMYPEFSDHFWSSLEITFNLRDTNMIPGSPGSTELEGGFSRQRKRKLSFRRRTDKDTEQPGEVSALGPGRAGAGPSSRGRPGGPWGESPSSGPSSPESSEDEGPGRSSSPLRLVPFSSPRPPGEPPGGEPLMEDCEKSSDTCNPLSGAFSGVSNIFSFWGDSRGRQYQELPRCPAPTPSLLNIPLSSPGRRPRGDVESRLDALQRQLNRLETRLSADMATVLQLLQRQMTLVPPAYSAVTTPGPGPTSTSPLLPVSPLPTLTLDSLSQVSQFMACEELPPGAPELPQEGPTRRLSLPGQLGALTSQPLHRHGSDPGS
# [16] = mouse, in vivo, 30 mg/kg
# [17] = mouse, in vivo, po
# [18] = in vivo; settings: mouse
# [19] = in vitro; settings: African green monkey
# [20] = test system: GTOV-p; experiment: organism not typed; assay type: cell-based, Guanarito (GTOV); settings: Vero, read-out: GTOV-p EC50
# [21] = read-out: EC50 in the plaque assay format
# [22] = read-out: EC90 in the VYR assay format
SMILES,pEC50 [1],pEC50 [2],pEC50 [3],pEC50 ([4]; Vero),pEC50 [4],pEC50 [5],pEC50 [6],"pEC50 [7, 21]",pEC50 ([7]; read-out: Plaque Assay EC50),Sl90 [8],"EC90 ([8]; Vero, read-out: VYR Assay EC90) [nM]","EC90 [8, 22] [nM]","Percent parent compound remaining at 60 minutes in liver microsomes, Mouse [9] [%]","Percent parent compound remaining at 60 minutes in liver microsomes, Monkey [10] [%]","Percent parent compound remaining at 60 minutes in liver microsomes, Dog [11] [%]","Percent parent compound remaining at 60 minutes in liver microsomes, Human [12] [%]","Percent parent compound remaining at 60 minutes in liver microsomes, Guinea [13] [%]",% Inhibition at 3 uM [15] [%],CC50 [19] [nM],pEC50 [20],further results
"Cc1cc2ncn(-c3ccc(OC(C)(C)C)cc3)c2cc1-c1ccc(C(C)(C)O)cc1 [Example A1, 2-(4-(1-(4-(tert-butoxy)phenyl)-5-methyl-1H-benzo[d]imidazol-6-yl)phenyl)propan-2-ol]",9.08,9.92,9.06,9.54,9.62,< 5.00,9.05,8.52 to 9.00,> 8.52,">33,000",< 1,1 to 3,82.7,8.6,>95,68.3,>95,<10,37700,–,"Percent parent compound remaining at 60 minutes in liver microsomes, Rat [14]: 93.8%; Oral C-Max [16]: 20.4 µg/mL; Oral T-Max [16]: 0.5 h; 24 hr liver concentration [17]: 240.3 ug/g liver; 24 hr plasma concentration [17]: 8.8 µg/mL; Vd [18]: 17.6 L/kg; clearance [18]: 0.8 mL/min/kg; AUC(0-t) ([18]; po, 30 mg/kg): 183 µg·h/mL; bioavailability ([18]; po, 30 mg/kg): 35%; half-life ([18]; po, 30 mg/kg): 17 h"
"Cc1cc2ncc(-c3ccc(C(C)(C)O)cc3)n2cc1-c1ccc(OC(C)C)cc1 [Example B8, 2-(4-(6-(4-isopropoxyphenyl)-7-methylimidazo[1,2-a]pyridin-3-yl)phenyl)propan-2-ol]",8.54,9.21,9.12,9.49,9.49,< 5.00,8.67,8.52 to 9.00,> 8.52,">9,000",< 3,1 to 3,77.5,33.7,77.57,87.6,67.7,<10,27800,9.03,"Percent parent compound remaining at 60 minutes in liver microsomes, Rat [14]: 93%"
"Cc1cc2ncc(-c3ccc(OC(C)(C)C)cc3)n2cc1-c1ccc(C(C)(C)O)cc1 [Example B6, 2-(4-(3-(4-(tert-butoxy)phenyl)-7-methylimidazo[1,2-a]pyridin-6-yl)phenyl)propan-2-ol]",9.15,9.89,9.66,9.80,10.00,< 5.00,9.02,–,–,–,–,–,81.7,–,–,81.5,61.5,–,4320,9.96,–
"Cc1cc2ncn(-c3ccc(OC(C)(C)C)cc3)c2cc1-c1ccc(OC(C)C)cc1 [Example A2, 1-(4-(tert-butoxy)phenyl)-6-(4-isopropoxyphenyl)-5-methyl-1H-benzo[d]imidazole]",9.42,9.85,9.82,9.82,9.92,< 5.00,9.48,8.52 to 9.00,> 8.52,">13,000",< 1,1 to 3,93.9,53,>95,95,>95,–,7300,10.30,"Percent parent compound remaining at 60 minutes in liver microsomes, Rat [14]: >95%"
"Cc1cc2ncc(-c3ccc(OC(C)(C)C)cc3)n2cc1-c1ccc(OC(C)C)cc1 [Example B7, 3-(4-(tert-butoxy)phenyl)-6-(4-isopropoxyphenyl)-7-methylimidazo[1,2-a]pyridine]",9.05,9.38,9.51,9.80,9.70,< 5.00,9.13,8.52 to 9.00,> 8.52,">11,000",< 1,1 to 3,–,–,–,–,–,<10,8140,9.92,"Oral C-Max [16]: 5.5 µg/mL; Oral T-Max [16]: 2 h; 24 hr liver concentration [17]: 63.4 ug/g liver; 24 hr plasma concentration [17]: 9.1 µg/mL; Vd [18]: 35.7 L/kg; clearance [18]: 13.7 mL/min/kg; AUC(0-t) ([18]; po, 30 mg/kg): 70.4 µg·h/mL; bioavailability ([18]; po, 30 mg/kg): 30%"
"CC(C)Oc1ccc(-c2cc3c(cc2Cl)nnn3-c2ccc(OC(C)C)cc2)cc1 [Example C11, 5-chloro-1,6-bis(4-isopropoxyphenyl)-1H-benzo[d][1,2,3]triazole]",8.64,9.72,10.00,9.11,9.21,< 5.00,9.08,–,–,–,–,–,>95,–,–,>95,>95,<10,> 100000,–,–
